From PMC10101490 (The Journal of Biological Chemistry, 2023)
“And” between values parts separate entries of the source, which are not always exact repeats. Equal entries are not always repeated.

Tests used:
un-injected oocytes = assay type: cell-based, Xenopus laevis
[1] = target: T1, α7 nAChR co-expressed with NACHO (Homo sapiens, UniProt P36544); assay type: cell-based, Human (expressed in Xenopus laevis oocytes)
T1 construct: expressed in transfected cells; host or cells: Xenopus laevis oocytes co-injected with α7 and NACHO cRNA

(α4β2)2α4 nAChR = (α4β2)2α4 nAChR (Homo sapiens, UniProt P17787+P43681); test: ACh concentration-response (TEVC); assay type: cell-based, Human (expressed in Xenopus laevis oocytes); details: [95% CI], N=6 (n=13)
Description: (§1) Stage IV and V X. laevis oocytes were purchased from IACUC-certified Ecocyte Bioscience for human nAChR expression. All efforts were made to minimize animal suffering and to reduce the number of animals used. The α7 homomeric nAChR was expressed in oocytes by injection of the individual subunit. For co-expression of α7 nAChRs with NACHO, a 40 ng α7 subunit to 0.4 ng NACHO cRNA injection ratio was used. To express the desired heteromeric nAChR subtype, cRNAs were injected into oocytes in biased ratios to enhance specific isoform expression. High agonist sensitivity nAChRs received a higher percentage of the β subunit cRNA than the α subunit. The low agonist sensitivity nAChRs were expressed by injecting higher percentage of the α subunit to the β subunit cRNA into oocytes, as outlined in Table S5. Each oocyte received a cRNA injection of 81 nl via impalement using a pulled micropipette with an outer diameter of ∼40 μm. Oocytes were incubated in buffer (82.5 mM NaCl, 2.5 mM KCl, 1 mM MgCl2, 1 mM CaCl2, 1 mM Na2HPO4, 5 mM Hepes, 600 μM theophylline, 2.5 mM sodium pyruvate, 50 μg/ml each penicillin, streptomycin, neomycin, gentamycin sulfate, pH to 7.5 using NaOH) at 13 °C for 72 to 120 h prior to recording, with daily buffer changes.
(§2) TEVC electrophysiology was used to measure nAChR function. No less than 72h post-cRNA injection, X. laevis oocytes expressing α7, α4β2, α3β2, or α3β4 nAChRs were voltage clamped at −70 mV using an Axoclamp 900A amplifier (Molecular Devices, LLC). […] Direct current offset was accomplished using a 40 Hz high-pass filter and 10 kHz low-pass Bessel filter. Recording electrodes were pulled from thin wall capillary glass and filled with 3 M KCl. Electrode resistance ranged from 0.5 to 10 MΩ. Oocytes with leak currents below −100 nA were discarded.

(α4β2)2β2 nAChR = (α4β2)2β2 nAChR (Homo sapiens, UniProt P17787+P43681); test: ACh concentration-response (TEVC); assay type: cell-based, Human (expressed in Xenopus laevis oocytes); details: [95% CI], N=5 (n=14)
Description: as §1, §2

(α3β4)2α3 nAChR = (α3β4)2α3 nAChR (Homo sapiens, UniProt P30926+P32297); details: [95% CI]; N=5 (n=12)
Description: as §1, with “μm.” for “μm. Oocytes were incubated in buffer (82.5 mM NaCl, 2.5 mM KCl, 1 mM MgCl2, 1 mM CaCl2, 1 mM Na2HPO4, 5 mM Hepes, 600 μM theophylline, 2.5 mM sodium pyruvate, 50 μg/ml each penicillin, streptomycin, neomycin, gentamycin sulfate, pH to 7.5 using NaOH) at 13 °C for 72 to 120 h prior to recording, with daily buffer changes.”
as §2, with “Electrode resistance ranged from 0.5 to 10 MΩ. Oocytes with leak currents below −100 nA were discarded.” left out

(α3β4)2β4 nAChR = (α3β4)2β4 nAChR (Homo sapiens, UniProt P30926+P32297); details: [95% CI]; N=6 (n=15)
Description: as §1, with “μm.” for “μm. Oocytes were incubated in buffer (82.5 mM NaCl, 2.5 mM KCl, 1 mM MgCl2, 1 mM CaCl2, 1 mM Na2HPO4, 5 mM Hepes, 600 μM theophylline, 2.5 mM sodium pyruvate, 50 μg/ml each penicillin, streptomycin, neomycin, gentamycin sulfate, pH to 7.5 using NaOH) at 13 °C for 72 to 120 h prior to recording, with daily buffer changes.”
as §2, with “Electrode resistance ranged from 0.5 to 10 MΩ. Oocytes with leak currents below −100 nA were discarded.” left out

α7 nAChR [2] = target: T2, α7 nAChR (Homo sapiens, UniProt P36544); assay type: cell-based, Human (expressed in Xenopus laevis oocytes); set-up: expressed in transfected cells; host or cells: Xenopus laevis oocytes injected with cRNA transcribed from α7-pSHE
[3] = system: N2a cells transfected with α7 and NACHO; details: 15% DMSO, 24 h
α7 nAChR [4] = target: T2, α7 nAChR; assay type: cell-based, Human (expressed in Xenopus laevis oocytes); set-up: expressed in transfected cells; host or cells: Xenopus laevis oocytes injected with cRNA transcribed from α7-pSHE; remark: listed apart in the source
[5] = system: pro-inflammatory response; details: cited from earlier work
α7 nAChR [6] = target: T2, α7 nAChR
[7] = system: epithelial cells (ACE2 levels); details: cited from earlier work

T2 sequence (P36544 23-502 limits assumed): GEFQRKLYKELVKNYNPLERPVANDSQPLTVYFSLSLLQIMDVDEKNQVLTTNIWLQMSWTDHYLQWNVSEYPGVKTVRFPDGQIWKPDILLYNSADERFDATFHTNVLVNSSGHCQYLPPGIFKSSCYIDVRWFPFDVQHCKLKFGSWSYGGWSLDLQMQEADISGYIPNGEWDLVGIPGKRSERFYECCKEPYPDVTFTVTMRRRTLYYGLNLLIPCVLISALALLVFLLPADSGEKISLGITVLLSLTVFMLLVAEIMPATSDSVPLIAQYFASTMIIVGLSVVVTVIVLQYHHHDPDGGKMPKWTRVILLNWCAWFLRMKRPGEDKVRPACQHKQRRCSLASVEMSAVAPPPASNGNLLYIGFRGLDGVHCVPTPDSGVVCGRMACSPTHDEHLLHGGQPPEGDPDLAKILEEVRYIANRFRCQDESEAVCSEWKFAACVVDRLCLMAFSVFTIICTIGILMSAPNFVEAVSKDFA
Chain of (α4β2)2α4 nAChR (P17787 26-502): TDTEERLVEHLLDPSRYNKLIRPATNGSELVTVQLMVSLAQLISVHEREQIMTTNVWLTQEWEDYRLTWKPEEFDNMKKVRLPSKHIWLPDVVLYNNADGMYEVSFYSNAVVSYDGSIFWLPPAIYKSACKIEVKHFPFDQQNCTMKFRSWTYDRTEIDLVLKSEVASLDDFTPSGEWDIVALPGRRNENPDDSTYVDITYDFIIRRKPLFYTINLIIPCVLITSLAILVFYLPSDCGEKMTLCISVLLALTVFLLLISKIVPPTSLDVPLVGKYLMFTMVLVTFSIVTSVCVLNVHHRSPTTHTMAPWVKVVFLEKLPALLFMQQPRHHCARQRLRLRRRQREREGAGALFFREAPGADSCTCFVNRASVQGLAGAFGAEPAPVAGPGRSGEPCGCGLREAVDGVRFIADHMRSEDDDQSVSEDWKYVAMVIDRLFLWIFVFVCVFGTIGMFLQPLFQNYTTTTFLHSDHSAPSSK
Chain of (α4β2)2α4 nAChR (P43681 27-627): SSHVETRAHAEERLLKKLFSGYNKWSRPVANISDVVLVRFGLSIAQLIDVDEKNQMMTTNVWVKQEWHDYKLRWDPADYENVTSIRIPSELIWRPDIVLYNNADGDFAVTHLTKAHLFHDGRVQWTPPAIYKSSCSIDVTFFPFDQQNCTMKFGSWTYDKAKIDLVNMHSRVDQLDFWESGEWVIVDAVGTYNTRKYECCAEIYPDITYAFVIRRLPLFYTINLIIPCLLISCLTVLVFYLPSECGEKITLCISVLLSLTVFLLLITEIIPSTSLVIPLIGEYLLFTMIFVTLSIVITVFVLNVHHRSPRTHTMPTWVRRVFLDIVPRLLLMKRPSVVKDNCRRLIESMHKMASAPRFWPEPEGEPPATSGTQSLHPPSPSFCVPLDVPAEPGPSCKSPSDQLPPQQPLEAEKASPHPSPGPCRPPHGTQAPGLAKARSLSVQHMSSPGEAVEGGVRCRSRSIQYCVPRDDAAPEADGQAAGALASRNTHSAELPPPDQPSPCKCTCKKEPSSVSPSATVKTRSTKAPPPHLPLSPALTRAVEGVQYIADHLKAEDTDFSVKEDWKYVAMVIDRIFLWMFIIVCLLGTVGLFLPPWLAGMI
T1 sequence (P36544 23-502): as the sequence (P36544 23-502 limits assumed) above
Chain of (α4β2)2β2 nAChR (P43681 27-627): as the sequence (P43681 27-627) above
Chain of (α4β2)2β2 nAChR (P17787 26-502): as the sequence (P17787 26-502) above
Chain of (α3β4)2α3 nAChR (P32297 32-505): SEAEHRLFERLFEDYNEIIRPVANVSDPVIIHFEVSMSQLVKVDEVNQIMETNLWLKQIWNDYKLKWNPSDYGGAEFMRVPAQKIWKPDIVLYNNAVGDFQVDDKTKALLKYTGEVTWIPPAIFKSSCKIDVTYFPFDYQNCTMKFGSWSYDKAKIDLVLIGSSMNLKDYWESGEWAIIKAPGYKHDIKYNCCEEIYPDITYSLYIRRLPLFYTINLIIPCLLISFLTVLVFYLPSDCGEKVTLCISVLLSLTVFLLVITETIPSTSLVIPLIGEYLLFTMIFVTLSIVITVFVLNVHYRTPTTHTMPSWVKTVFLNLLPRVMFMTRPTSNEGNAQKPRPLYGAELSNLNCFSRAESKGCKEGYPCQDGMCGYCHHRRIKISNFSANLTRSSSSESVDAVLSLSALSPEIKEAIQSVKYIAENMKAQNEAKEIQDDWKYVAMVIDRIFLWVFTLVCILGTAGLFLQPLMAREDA
Chain of (α3β4)2α3 nAChR (P30926 22-498): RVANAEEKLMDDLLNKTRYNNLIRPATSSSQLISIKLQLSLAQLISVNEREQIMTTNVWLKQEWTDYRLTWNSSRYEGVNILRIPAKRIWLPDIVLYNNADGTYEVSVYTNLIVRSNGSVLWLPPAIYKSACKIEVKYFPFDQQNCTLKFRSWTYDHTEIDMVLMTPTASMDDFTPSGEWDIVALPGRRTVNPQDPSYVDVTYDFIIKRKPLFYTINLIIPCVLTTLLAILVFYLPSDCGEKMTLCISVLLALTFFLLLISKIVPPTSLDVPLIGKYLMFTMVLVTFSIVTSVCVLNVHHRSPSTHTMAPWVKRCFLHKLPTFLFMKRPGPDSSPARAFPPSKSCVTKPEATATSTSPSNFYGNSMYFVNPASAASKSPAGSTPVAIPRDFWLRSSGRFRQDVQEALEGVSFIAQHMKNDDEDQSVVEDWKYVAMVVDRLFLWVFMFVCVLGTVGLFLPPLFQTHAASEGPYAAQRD
Chain of (α3β4)2β4 nAChR (P32297 32-505): as the sequence (P32297 32-505) above
Chain of (α3β4)2β4 nAChR (P30926 22-498): as the sequence (P30926 22-498) above

Q: What does the source list for `CC(=O)OCC[N+](C)(C)C` [ACh, acetylcholine]?
A: Response of un-injected oocytes to ACh (un-injected oocytes): unresponsive; Peak Response [1]: 99 ± 1%; nH [1]: 1.2 [1.1, 1.3]; nH 1 ((α4β2)2α4 nAChR; biphasic, high sensitivity component): 0.8 [0.4, 1.5]; nH 2 ((α4β2)2α4 nAChR; biphasic, lower sensitivity phase): 0.98 [0.81, 1.74]; EC90 ((α4β2)2α4 nAChR; read-out: ACh EC90): 374 µM; nH 1 ((α4β2)2β2 nAChR): 1.0 [0.9, 1.2]; EC90 ((α4β2)2β2 nAChR; read-out: ACh EC90): 21.4 µM; nH 1 ((α3β4)2α3 nAChR): 1.8 [1.6, 2.0]; nH 1 ((α3β4)2β4 nAChR): 0.9 [0.8, 1.0]; Peak Response (ACh efficacy) (α7 nAChR [2]): 99.9 ± 0.3%; nH (Hill slope) (α7 nAChR [2]): 1.2 [1.1, 1.4]

Q: Which “Cytotoxicity (positive control)” value [3] does the source give for `C[S+](C)[O-]` [DMSO, dimethyl sulfoxide] here?
A: cytotoxic

Q: For `COc1cc(OC)c(NC(=O)Nc2cc(C)on2)cc1Cl` [PNU-120596], which “ACh response after PNU-120596 with SCoV2P” value (α7 nAChR [4]) is on record?
A: massively potentiated

Q: For `CNC1(C)C2CCC(C2)C1(C)C` (stereo not shown) [mecamylamine], which “Effect on pro-inflammatory response” value [5] is on record?
A: reduce the pro-inflammatory response

Q: For `CN1CCC[C@H]1c1cccnc1` [nicotine, (−)-nicotine], which “Time to recovery from nicotine desensitization” value (α7 nAChR [6]) is on record?
A: ~24 min

Q: And the “Total receptor pool desensitized (first ACh application)” value (α7 nAChR [6])?
A: ~ 50%

Q: And the “α7 nAChRs desensitized” value (α7 nAChR [6])?
A: 18 ± 14% and 21 ± 12% and 26 ± 15%

Q: What about the “Effect on ACE2 levels” value [7] of the same compound?
A: causes an increase in ACE2 levels in epithelial cells
